# Tests used:
# [1] = Inhibition of Saccharomyces cerevisiae FTase after 15 mins by fluorimetric analysis
# Plasmodium falciparum [2] = assay: Antiplasmodial activity against chloroquine-sensitive Plasmodium falciparum 3D7 after 48 hrs; format: functional, organism-based; details: 3D7, 48 h
# Plasmodium falciparum [3] = assay: Antiplasmodial activity against chloroquine-resistant Plasmodium falciparum FcB1 after 48 hrs; format: functional, organism-based; details: FcB1/Columbia
# Vero = assay: Cytotoxicity against african green monkey Vero cells assessed as inhibition of [3H]hypoxanthine incorporation after 48 hrs; format: cell-based; details: Chlorocebus sabaeus
# Phospholipase A2 = molecular target: T1, Phospholipase A2 (Apis mellifera, UniProt P00630); assay: Inhibition of bee venom phospholipase A2 after 5 mins by spectrophotometric analysis
# T1 sequence (P00630 whole entry): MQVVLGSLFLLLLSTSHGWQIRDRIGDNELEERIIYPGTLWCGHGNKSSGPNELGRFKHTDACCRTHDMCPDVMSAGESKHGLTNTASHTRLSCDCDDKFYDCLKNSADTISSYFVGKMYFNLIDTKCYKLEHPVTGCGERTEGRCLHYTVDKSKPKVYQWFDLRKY
# [4] = molecular target: Protein farnesyltransferase (Homo sapiens, UniProt P49354+P49356); assay: Inhibition of human FTase after 15 mins by fluorimetric analysis; format: protein-complex assay
SMILES,IC50 [1] [nM],IC50 (Plasmodium falciparum [2]) [µM],IC50 (Plasmodium falciparum [3]) [µM],IC50 (Vero) [µM],IC50 (Phospholipase A2) [µM],IC50 [4] [nM]
C[C@@]12CCC(=O)c3coc(c31)C(=O)c1cc3c(cc12)C(=O)C=CC3=O [HELENAQUINONE],1600,30,> 30,> 60,–,–
COC(=O)CN/C=C1\C(=O)CC[C@]2(C)C1=C(O)C(=O)c1cc3c(cc12)C(=O)C=CC3=O,–,16.5,55.8,13.4,76.8,–
CCCCCN/C=C1\C(=O)CC[C@]2(C)C1=C(O)C(=O)c1cc3c(cc12)C(=O)C=CC3=O,41,7.4,9.2,6.3,23.9,57
C[C@@]12CCC(=O)/C(=C\NCCc3ccccc3)C1=C(O)C(=O)c1cc3c(cc12)C(=O)C=CC3=O,310,2.1,8.8,4.7,17.7,440
CC1=CCCC2(C)C1=C(O)C(=O)c1cc3c(cc12)C(=O)C=CC3=O (stereo unspecified) [ORHALQUINONE],400,–,–,> 62,–,–
CC(C)=CCC/C(C)=C/CN/C=C1\C(=O)CC[C@]2(C)C1=C(O)C(=O)c1cc3c(cc12)C(=O)C=CC3=O,17,0.53,0.62,8.6,34.4,31
CC(C)(C)OC(=O)NCCN/C=C1\C(=O)CC[C@]2(C)C1=C(O)C(=O)c1cc3c(cc12)C(=O)C=CC3=O,–,–,52.8,7.4,12.8,–
